Results taken from patent US20240150365A1 (Hotspot Therapeutics, Inc., priority 2022, published 2024).

Legend:
NF-kB = NF-kB reporter assay in Jurkat cells stimulated with aCD3/aCD28/PMA; type: cell-based; details: Homo sapiens, Jurkat, Jurkat cells, 1 hr compound incubation, aCD3/aCD28/PMA stimulation 4 hr, One-Glo readout; read-out: NF-kB Reporter Assay IC50
Summary of the method: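 Jurkat cells (25,000/well, serum-free RPMI 1640) preincubated 1 hr at 37° C with serially diluted compound, then stimulated with aCD3/aCD28/PMA (final 5 μg/mL, 5 μg/mL, 0.03 μg/mL) for 4 hr. Reporter luminescence read with One-Glo; IC50 derived.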

MALT1 = biological target: T1, MALT1 (Homo sapiens, UniProt Q9UDY8); experiment: MALT-1 Fluorogenic Peptide Cleavage Assay (MALT1 inhibition assay); type: biochemical; details: Avi-tagged FL MALT-1, Ac-LRSR-AMC peptide substrate, 30 min pre-incubation, 90 min reaction
T1 construct: Avi-tagged FL MALT-1 (Pharmaron, stored at −70° C.); Avi tag
T1 sequence (Q9UDY8 1-824): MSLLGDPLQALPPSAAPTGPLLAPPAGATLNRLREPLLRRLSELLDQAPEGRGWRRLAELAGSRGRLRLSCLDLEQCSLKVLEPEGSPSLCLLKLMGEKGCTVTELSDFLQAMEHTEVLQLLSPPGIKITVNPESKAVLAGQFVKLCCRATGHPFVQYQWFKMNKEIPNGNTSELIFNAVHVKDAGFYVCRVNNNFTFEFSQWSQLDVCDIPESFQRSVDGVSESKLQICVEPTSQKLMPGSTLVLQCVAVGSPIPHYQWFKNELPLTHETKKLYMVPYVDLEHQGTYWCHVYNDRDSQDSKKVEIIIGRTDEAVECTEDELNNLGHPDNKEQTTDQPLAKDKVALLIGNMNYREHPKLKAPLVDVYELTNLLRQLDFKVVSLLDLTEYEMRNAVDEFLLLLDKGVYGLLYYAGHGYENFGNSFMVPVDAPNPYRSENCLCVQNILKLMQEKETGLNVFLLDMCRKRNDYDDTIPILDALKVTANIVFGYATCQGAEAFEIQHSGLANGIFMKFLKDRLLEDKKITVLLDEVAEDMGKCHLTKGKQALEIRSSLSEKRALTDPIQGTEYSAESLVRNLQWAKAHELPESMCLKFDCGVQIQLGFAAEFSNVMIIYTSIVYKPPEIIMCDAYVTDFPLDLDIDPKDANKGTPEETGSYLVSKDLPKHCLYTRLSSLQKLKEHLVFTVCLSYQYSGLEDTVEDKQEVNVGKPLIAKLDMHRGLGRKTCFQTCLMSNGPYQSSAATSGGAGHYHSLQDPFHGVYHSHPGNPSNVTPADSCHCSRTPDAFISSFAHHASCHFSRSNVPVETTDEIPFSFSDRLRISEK
Summary of the method: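 Avi-tagged full-length MALT1 pre-incubated 30 min with compound (2% DMSO final), then cleavage of Ac-LRSR-AMC followed over 90 min at room temperature. AMC fluorescence read at 342/441 nm; % inhibition fitted to sigmoidal curves for IC50.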

Structure (SMILES)	IC50 (NF-kB) [µM]	IC50 (MALT1) [µM]
Cn1ncc2cccc(NS(=O)(=O)c3ccc(-c4cnc5n4CCOC5)nc3)c21 [Example I-309, 6-(5,6-dihydro-8H-imidazo[2,1-c][1,4]oxazin-3-yl)-N-(1-methyl-1H-indazol-7-yl)pyridine-3-sulfonamide]	< 0.4	> 2.5
COc1ncc2cnn(C)c2c1NS(=O)(=O)c1ccc(-c2cnn3c2COCCC3)nc1 [Example I-311]	> 2.5	> 2.5
COc1ccc2cnn(C)c2c1NS(=O)(=O)c1ccc(-c2cnc3n2CCOC3)nc1 [Example I-312, 6-(5,6-dihydro-8H-imidazo[2,1-c][1,4]oxazin-3-yl)-N-(6-methoxy-1-methyl-1H-indazol-7-yl)pyridine-3-sulfonamide]	0.4 to 1	1 to 2.5
Cn1ncc2cccc(NS(=O)(=O)c3ccc(-c4cnn5c4COCCC5)nc3)c21 [Example I-313]	< 0.4	> 2.5
CN1CCn2ncc(-c3ccc(S(=O)(=O)Nc4cccc5cnn(C)c45)cn3)c2C1 [Example I-314, 6-{5-methyl-4H,6H,7H-pyrazolo[1,5-a]pyrazin-3-yl}-N-(1-methylindazol-7-yl)pyridine-3-sulfonamide]	1 to 2.5	> 2.5

Other lines, results leading:

IC50 (NF-kB) [µM]	IC50 (MALT1) [µM]	Structure (SMILES)
> 2.5	> 2.5	COc1ccc2cnn(C)c2c1NS(=O)(=O)c1ccc(-c2cnn3c2COCCC3)nc1 [Example I-310, 6-(7,8-dihydro-4H,6H-pyrazolo[5,1-c][1,4]oxazepin-3-yl)-N-(6-methoxy-1-methyl-1H-indazol-7-yl)pyridine-3-sulfonamide]
> 2.5	> 2.5	COc1ccc2cnn(C)c2c1NS(=O)(=O)c1ccc(-c2cnn3c2CN(C)CC3)nc1 [Example I-315]
< 0.4	< 0.4	[2H]C([2H])([2H])Oc1ccc2cnn(C([2H])([2H])[2H])c2c1NS(=O)(=O)c1ccc(-n2cc(C(F)(F)F)cn2)nc1 [Example I-316, N-(6-(methoxy-d3)-1-(methyl-d3)-1H-indazol-7-yl)-6-(4-(trifluoromethyl)-1H-pyrazol-1-yl)pyridine-3-sulfonamide]
